Experimental data: patent US20130102009A1, “SIRTUIN ACTIVATORS AND ACTIVATION ASSAYS” (priority 2010, published 2013)
“And” between values parts separate entries of the source, which are not always exact repeats. Equal values may be shown once. Read-outs that look alike come from different tables or passages of the source.

Molecular target: T1, SIRT1 (Homo sapiens, UniProt Q96EB6)
T1 sequence (Q96EB6 1-747): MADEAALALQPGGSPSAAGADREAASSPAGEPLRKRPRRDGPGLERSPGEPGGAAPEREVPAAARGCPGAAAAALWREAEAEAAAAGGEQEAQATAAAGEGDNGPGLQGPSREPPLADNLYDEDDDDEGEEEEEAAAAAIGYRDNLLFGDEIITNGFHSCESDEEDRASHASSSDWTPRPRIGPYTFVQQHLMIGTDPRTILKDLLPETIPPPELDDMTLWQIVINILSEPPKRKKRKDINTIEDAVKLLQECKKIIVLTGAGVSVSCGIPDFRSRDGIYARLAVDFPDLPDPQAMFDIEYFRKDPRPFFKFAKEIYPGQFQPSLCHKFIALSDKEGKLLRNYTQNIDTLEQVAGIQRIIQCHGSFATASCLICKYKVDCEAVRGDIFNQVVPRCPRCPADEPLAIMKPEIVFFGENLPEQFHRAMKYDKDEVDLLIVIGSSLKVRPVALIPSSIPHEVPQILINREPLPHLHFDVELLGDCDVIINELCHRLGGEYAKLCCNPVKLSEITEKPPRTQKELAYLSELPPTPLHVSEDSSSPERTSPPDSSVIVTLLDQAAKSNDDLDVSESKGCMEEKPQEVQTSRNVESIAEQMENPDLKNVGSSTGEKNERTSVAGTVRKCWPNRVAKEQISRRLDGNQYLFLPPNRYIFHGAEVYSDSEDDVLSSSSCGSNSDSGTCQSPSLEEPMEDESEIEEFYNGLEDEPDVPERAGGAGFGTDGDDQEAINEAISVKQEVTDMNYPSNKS
Experiment: Mass spectroscopic kinetic assay of SIRT1-catalyzed deacetylation of 20mer peptides
Type: biochemical
Method: Bovine glutamate dehydrogenase (GDH), α-ketoglutarate, NADH and NAD^+ were from Sigma Chemical Company. […] The nicotinamidase PNC1 was prepared as described by Denu and colleagues (Smith et al. (2009) Anal Biochem 394, 101-109). Our collection of approximately 5,000 SIRT1 activators was screened using the BioTrove mass spectrometry system, as previously described (Milne et al. (2007) Nature 450, 712-716). […] Compounds were present at 10 μM, and the assays were conducted in a pH 7.4 buffer containing 150 mM Tris, 5 mM DTT, 1% DMSO, and 0.025% BSA. To determine the interaction of STACs with SIRT1 two kinetic methods were employed. […] (2007) Nature 450, 712-716). The other, used with peptides of general structure […], used a continuous, enzyme-coupled method reported previously (Smith et al. (2009) Anal Biochem 394, 101-109), in which the SRT1 product nicotinamide is first converted into nicotinic acid and ammonia by the action of PNC1, and the ammonia then used by GDH to convert α-ketoglutarate into glutamate. This reaction occurs with oxidation of NADH to NAD^+ which is accompanied by a change in absorbance at 340 nm (Δε340=-6,200 M^-1 cm^-1). Activator titrations were plotted as relative velocity (i.e., the ratio of vx, velocity in the presence of activator X, to vo, velocity in the absence of activator) vs. [X]o, initial concentration of activator, and fit by nonlinear least-squares to the mechanism-independent expression for enzyme activation of […] the maximum relative velocity (i.e., vx/vo at infinite [X]o) and EC50 is the activator concentration at which vx/vo=(RVmax-1)/2. EC50 is a function of the kinetic mechanisms of both catalysis and activation, and the concentrations of substrates.

## CCCCc1nc(NC2CCNCC2)cc(C(=O)Nc2ccccc2-c2nc3cc(COC4CCNCC4)cnc3s2)n1 [Compound 10, 2-butyl-6-(piperidin-4-ylamino)-N-(2-(6-((piperidin-4-yloxy)methyl)thiazolo[5,4-b]pyridin-2-yl)phenyl)pyrimidine-4-carboxamide]
Substrate TAMRA-peptide, fit to eq (1)
  RVmax (maximum relative velocity): 6.8±0.3
Substrate TAMRA-peptide, fit to eq (1), read-out: EC50 (Kx) for activation of SIRT1-catalyzed deacetylation of TAMRA-peptide
  EC50: 3900 ± 500 nM
Substrate des(biotin,TAMRA)-peptide
  Effect on the deacetylation of des(biotin,TAMRA)-peptide: none activate
Substrate desTAMRA-peptide, fit to eq (1)
  RVmax for activation of the deacetylation of desTAMRA-peptide: ~2.3
Substrate desTAMRA-peptide, fit to eq (1), listed as 22
  RVmax for activation of the deacetylation of desTAMRA-peptide: 2.6 ± 0.1
Substrate desTAMRA-peptide, fit to eq (1), read-out: EC50 for activation of the deacetylation of desTAMRA-peptide
  EC50: ~2000 nM and 1700 nM
Substrate p53-20 mer, RV=1/(1+([X]o/Ki,app))
  Ki,app for inhibition of the deacetylation of p53-20 mer: inhibit
Substrate p53-20 mer, RV=1/(1+([X]o/Ki,app)), read-out: Ki,app for inhibition of the deacetylation of p53-20 mer
  Ki: 9 µM
